Experimental data as given in patent publication US20200138854A1, “Method of Detecting and Quantifying Bile Acid from Saliva” (Ironwood Pharmaceuticals, Inc., priority 2017, published 2020).
“And” between values parts separate entries of the source, which are not always exact repeats. Identical values can stand only once.

Legend:
[1] = Frozen (−20° C.) short-term stability in cholestyramine-treated human saliva; conditions: for % Bias QC-LLOQ / % CV QC-LLOQ / Concentration QC-LLOQ / Mean concentration QC-LLOQ: nominal 0.500 ng/mL; for Concentration QC-LLOQ / Concentration QC-Mid / Concentration QC-High: Run 33, cholestyramine-treated human saliva, replicate; for Mean concentration QC-LLOQ / Mean concentration QC-Mid / Mean concentration QC-High: n 4; for % Bias QC-Mid / % CV QC-Mid / Concentration QC-Mid / Mean concentration QC-Mid: nominal 8.00 ng/mL; for % Bias QC-High / % CV QC-High / Concentration QC-High / Mean concentration QC-High: nominal 80.0 ng/mL
Method: Quality control samples for the evaluation of accuracy and precision and for run acceptance were prepared on the day of sample extraction. QC samples prepared in cholestyramine-treated saliva are to be prepared in small volumes for analysis. Stability for these QC samples would be limited to short-term storage (i.e., 2 days) whereas untreated human saliva would be evaluated for long-term storage.
For stability in cholestyramine-treated human saliva, samples were prepared by spiking cholestyramine-treated human saliva with each analyte at the QC-LLOQ, QC-Low, QC-Mid and QC-High levels. The samples were stored in a −20° C. freezer. After 1 day and 2 days of storage, each sample was extracted in replicates of four for analysis.

[2] = Long-term (1 month at −20° C. and −80° C.) stability in untreated human saliva; conditions: nominal 80.0 ng/mL; for Fresh QCs (Batch 34) Mean at Time Zero, QC-High / Concentration QC-High: untreated human saliva; for % Bias QC-High / % CV QC-High / Difference from Fresh (%) QC-High / Mean concentration QC-High / Concentration QC-High: 1 month; for Mean concentration QC-High: n 3; for Concentration QC-High: Run 35, replicate
Method: For long-term stability in untreated human saliva, samples were prepared by spiking untreated human saliva with each analyte at the QC-Low and QC-High levels. The samples were stored in a −20° C. freezer and in a −80° C. freezer. After 1 month of storage, each sample was extracted in replicates of three for analysis.
A 100-μL aliquot of sample (calibration standards, quality controls, blanks, and stability samples) was transferred into a 96 well plate, according to a pre-defined layout. […] The plates were covered, vortex-mixed and then centrifuged for 5 minutes at 3200 rpm. Supernatants (350 μL each) were transferred into the corresponding wells of a clean 96 well plate and evaporated to dryness under nitrogen in a Turbovap set to 40° C. The dried residue in each well was reconstituted with 75 μL of 50:50 (v:v) methanol:water.

Short-term stability in cholestyramine-treated human saliva [1]: up to 2 days
Stability in Treated Human Saliva [1]: 2 days
% Bias QC-LLOQ ([1]; 1 Day at −20° C.): 7.1%
% CV QC-LLOQ ([1]; 1 Day at −20° C.): 2.2%
Mean concentration QC-LLOQ ([1]; 1 Day at −20° C.): 0.535 ng/mL
% Bias QC-LLOQ ([1]; 2 Days at −20° C.): 19.6%
% CV QC-LLOQ ([1]; 2 Days at −20° C.): 4.1%
Mean concentration QC-LLOQ ([1]; 2 Days at −20° C.): 0.598 ng/mL
% Bias QC-Mid ([1]; 1 Day at −20° C.): −5.4%
% CV QC-Mid ([1]; 1 Day at −20° C.): 0.9%
Mean concentration QC-Mid ([1]; 1 Day at −20° C.): 7.57 ng/mL
% Bias QC-Mid ([1]; 2 Days at −20° C.): −1.8%
% CV QC-Mid ([1]; 2 Days at −20° C.): 4.0%
Mean concentration QC-Mid ([1]; 2 Days at −20° C.): 7.85 ng/mL
% Bias QC-High ([1]; 1 Day at −20° C.): −3.3%
% CV QC-High ([1]; 1 Day at −20° C.): 2.9%
Mean concentration QC-High ([1]; 1 Day at −20° C.): 77.3 ng/mL
% Bias QC-High ([1]; 2 Days at −20° C.): −3.8%
% CV QC-High ([1]; 2 Days at −20° C.): 3.9%
Mean concentration QC-High ([1]; 2 Days at −20° C.): 77.0 ng/mL
Fresh QCs (Batch 34) Mean at Time Zero, QC-High ([2]; reference for −20° C. Storage): 84.5 ng/mL
Fresh QCs (Batch 34) Mean at Time Zero, QC-High ([2]; reference for −80° C. Storage): 84.5 ng/mL
% Bias QC-High ([2]; −20° C. Storage): 1.0%
% CV QC-High ([2]; −20° C. Storage): 2.5%
Difference from Fresh (%) QC-High ([2]; −20° C. Storage): −4.3%
Mean concentration QC-High ([2]; −20° C. Storage): 80.8 ng/mL
Concentration QC-High ([2]; −20° C. Storage): 79.1 ng/mL and 83.0 ng/mL and 80.4 ng/mL
% Bias QC-High ([2]; −80° C. Storage): 1.0%
% CV QC-High ([2]; −80° C. Storage): 4.7%
Difference from Fresh (%) QC-High ([2]; −80° C. Storage): −4.3%
Mean concentration QC-High ([2]; −80° C. Storage): 80.8 ng/mL
Concentration QC-High ([2]; −80° C. Storage): 84.4 ng/mL and 81.2 ng/mL and 76.9 ng/mL
SMILES: C[C@H](CCC(=O)NCCS(=O)(=O)O)[C@H]1CC[C@H]2[C@@H]3[C@H](O)C[C@@H]4C[C@H](O)CC[C@]4(C)[C@H]3CC[C@]12C [Taurochenodeoxycholic Acid, Taurochenodeoxycholic acid]
Concentration QC-LLOQ ([1]; 1 Day at −20° C.): 0.529 ng/mL and 0.542 ng/mL and 0.522 ng/mL and 0.548 ng/mL
Concentration QC-LLOQ ([1]; 2 Days at −20° C.): 0.608 ng/mL and 0.589 ng/mL and 0.569 ng/mL and 0.626 ng/mL
Concentration QC-Mid ([1]; 1 Day at −20° C.): 7.59 ng/mL and 7.63 ng/mL and 7.58 ng/mL and 7.47 ng/mL
Concentration QC-Mid ([1]; 2 Days at −20° C.): 7.42 ng/mL and 8.04 ng/mL and 8.12 ng/mL and 7.83 ng/mL
Concentration QC-High ([1]; 1 Day at −20° C.): 78.3 ng/mL and 79.8 ng/mL and 74.6 ng/mL and 76.6 ng/mL
Concentration QC-High ([1]; 2 Days at −20° C.): 74.4 ng/mL and 78.6 ng/mL and 74.5 ng/mL and 80.3 ng/mL
